Reference: patent US20160237067A1, “SUBSTITUTED PHENYLALANINE DERIVATIVES” (BAYER PHARMA AKTIENGESELLSCHAFT, priority 2013, published 2016)
Counter-ions that a name gives are not always drawn.

Experiments:
human factor XIa = biological target: T1, human factor XIa (Homo sapiens, UniProt P03951); experiment: Measurement of FXIa inhibition (fluorogenic peptide substrate Boc-Glu(OBzl)-Ala-Arg-AMC); assay type: biochemical; details: factor XIa from Kordia 0.45 nM; 15 min preincubation; 30 min at 22° C.
T1 construct: purchased Kordia
T1 sequence (P03951 388-625 limits assumed): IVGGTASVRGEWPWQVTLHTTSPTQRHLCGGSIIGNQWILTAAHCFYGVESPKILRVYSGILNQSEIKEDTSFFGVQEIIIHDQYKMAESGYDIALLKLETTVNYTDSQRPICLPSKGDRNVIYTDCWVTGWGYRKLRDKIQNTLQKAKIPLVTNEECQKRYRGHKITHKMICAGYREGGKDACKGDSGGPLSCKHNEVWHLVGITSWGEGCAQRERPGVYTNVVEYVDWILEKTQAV
T1 sequence (P03951 19-387 partner limits assumed): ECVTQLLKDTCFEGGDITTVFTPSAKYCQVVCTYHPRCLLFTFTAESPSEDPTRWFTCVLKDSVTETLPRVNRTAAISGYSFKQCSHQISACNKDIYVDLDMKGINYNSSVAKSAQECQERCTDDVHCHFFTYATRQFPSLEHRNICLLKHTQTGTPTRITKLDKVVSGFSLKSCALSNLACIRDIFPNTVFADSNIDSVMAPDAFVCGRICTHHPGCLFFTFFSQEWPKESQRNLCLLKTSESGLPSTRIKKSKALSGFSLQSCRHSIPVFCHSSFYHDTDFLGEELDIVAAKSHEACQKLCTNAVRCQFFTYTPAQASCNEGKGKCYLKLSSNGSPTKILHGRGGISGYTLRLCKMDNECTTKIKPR
Procedure: The factor XIa inhibition of the substances according to the invention is determined using a biochemical test system which utilizes the reaction of a peptidic factor XIa substrate to determine the enzymatic activity of human factor XIa. Here, factor XIa cleaves from the peptic factor XIa substrate the C-terminal aminomethylcoumarin (AMC), the fluorescence of which is measured. The determinations are carried out in microtitre plates.
Test substances are dissolved in dimethyl sulphoxide and serially diluted in dimethyl sulphoxide (3000 μM to 0.0078 μM; resulting final concentrations in the test: 50 μM to 0.00013 μM). In each case 1 μl of the diluted substance solutions is placed into the wells of white microtitre plates from Greiner (384 wells). Subsequently, the following are added successively: 20 μl of assay buffer (50 mmol/l Tris buffer pH 7.4; 100 mmol/l sodium chloride; 5 mmol/l calcium chloride; 0.1% bovine serum albumin) and 20 μl of factor XIa from Kordia (0.45 nM in assay buffer). After 15 min of incubation, the enzyme reaction is started by addition of 20 μl of the factor XIa substrate Boc-Glu(OBzl)-Ala-Arg-AMC dissolved in assay buffer (10 μM in assay buffer) from Bachem, the mixture is incubated at room temperature (22° C.) for 30 min and fluorescence is then measured (excitation: 360 nm, emission: 460 nm). The measured emissions of the test batches with test substance are compared to those of control batches without test substance (only dimethyl sulphoxide instead of test substance in dimethyl sulphoxide), and IC50 values are calculated from the concentration/activity relationships.

human and animal plasma = experiment: Determination of anticoagulatory activity: activated partial thromboplastin time (aPTT) in plasma; assay type: biochemical; details: C.K. Prest kit, 37° C., 3 minutes incubation, plasma species of Table B not stated
Procedure: The anticoagulatory activity of the test substances is determined in vitro in human and animal plasma (for example mouse, rat, rabbit, pig and dog plasma). To this end, blood is drawn off in a mixing ratio of sodium citrate/blood of 1:9 using a 0.11 molar sodium citrate solution as receiver. Immediately after the blood has been drawn off, it is mixed thoroughly and centrifuged at about 4000 g for 15 minutes. The supernatant is pipetted off.
The activated partial thromboplastin time (aPTT) is determined in the presence of varying concentrations of test substance or the corresponding solvent using a commercial test kit (C.K. Prest from Diagnostica Stago). The test compounds are incubated with the plasma and the PTT reagent (cephalin, kaolin) at 37° C. for 3 minutes. Coagulation is then started by addition of a 25 mM aqueous calcium chloride solution, and the time when coagulation occurs is determined. The concentration of test substance which brings about a 1.5-fold extension of the aPTT is determined Activity data from this test are listed in Table B below: […]

**Q.** Which results are given for Cc1ccc(S(=O)(=O)N(C)C)cc1-c1ccc(C[C@H](NC(=O)[C@H]2CC[C@H](CN)CC2)C(=O)Nc2ccc(-c3nnn[nH]3)cc2)cc1 [Example 1, trans-4-(Aminomethyl)-N-[(2S)-3-[5′-(dimethylsulphamoyl)-2′-methylbiphenyl-4-yl]-1-oxo-1-{[4-(1H-tetrazol-5-yl)phenyl]amino}propan-2-yl]cyclohexanecarboxamide hydrochloride]?
**A.** IC50 (human factor XIa): 0.5 nM; aPTT (concentration of test substance which brings about a 1.5-fold extension of the aPTT) (human and animal plasma): 0.16 µmol/L

**Q.** How did the IC50 (human factor XIa) turn out when Cc1ccc(S(=O)(=O)N2CCOCC2)cc1-c1ccc(C[C@H](NC(=O)[C@H]2CC[C@H](CN)CC2)C(=O)Nc2ccc(-c3nnn[nH]3)cc2)cc1 [Example 2, trans-4-(Aminomethyl)-N-[(2S)-3-[2′-methyl-5′-(morpholin-4-ylsulphonyl)biphenyl-4-yl]-1-oxo-1-{[4-(1H-tetrazol-5-yl)phenyl]amino}propan-2-yl]cyclohexanecarboxamide hydrochloride] was run?
**A.** Its IC50 is 0.1 nM.

**Q.** And the “aPTT (concentration of test substance which brings about a 1.5-fold extension of the aPTT)” value (human and animal plasma)?
**A.** The value was 0.22 µmol/L.

**Q.** What does the source list for Cc1ccc(S(=O)(=O)N(C)C)cc1-c1ccc(C[C@H](NC(=O)[C@H]2CC[C@H](CN)CC2)C(=O)Nc2ccc(-c3nnc(Cl)[nH]3)cc2)cc1 [Example 3, trans-4-(Aminomethyl)-N-{(2S)-1-{[4-(5-chloro-4H-1,2,4-triazol-3-yl)phenyl]amino}-3-[5′-(dimethylsulphamoyl)-2′-methylbiphenyl-4-yl]-1-oxopropan-2-yl}cyclohexanecarboxamide hydrochloride]?
**A.** IC50 (human factor XIa): 2.8 nM; aPTT (concentration of test substance which brings about a 1.5-fold extension of the aPTT) (human and animal plasma): 0.19 µmol/L

**Q.** NC[C@H]1CC[C@H](C(=O)N[C@@H](Cc2ccc(-c3cccc(S(N)(=O)=O)c3)cc2)C(=O)Nc2ccc(-c3nnn[nH]3)cc2)CC1 [Example 4, trans-4-(Aminomethyl)-N-[(2S)-1-oxo-3-(3′-sulphamoylbiphenyl-4-yl)-1-{[4-(1H-tetrazol-5-yl)phenyl]amino}propan-2-yl]cyclohexanecarboxamide hydrochloride] was tested. Which IC50 (human factor XIa) did it give?
**A.** Its IC50 is 3.1 nM.

**Q.** What about the “aPTT (concentration of test substance which brings about a 1.5-fold extension of the aPTT)” value (human and animal plasma) of the same molecule?
**A.** Its value is 0.16 µmol/L.

**Q.** How did the IC50 (human factor XIa) turn out when CN1CCN(C(=O)c2cccc(-c3ccc(C[C@H](NC(=O)[C@H]4CC[C@H](CN)CC4)C(=O)Nc4ccc(-c5nnn[nH]5)cc4)cc3)c2)CC1 [Example 5, trans-4-(Aminomethyl)-N-[(2S)-3-{3′-[(4-methylpiperazin-1-yl)carbonyl]biphenyl-4-yl}-1-oxo-1-{[4-(1H-tetrazol-5-yl)phenyl]amino}propan-2-yl]cyclohexanecarboxamide hydrochloride] was run?
**A.** Its IC50 is 11 nM.

**Q.** And the “aPTT (concentration of test substance which brings about a 1.5-fold extension of the aPTT)” value (human and animal plasma)?
**A.** Its value is 0.37 µmol/L.

**Q.** For NC[C@H]1CC[C@H](C(=O)N[C@@H](Cc2ccc(-c3cccc(OCCN4CCOCC4)c3)cc2)C(=O)Nc2ccc(-c3nn[nH]n3)cc2)CC1 [Example 6, trans-4-(Aminomethyl)-N-[(2S)-3-{3′-[2-(morpholin-4-yl)ethoxy]biphenyl-4-yl}-1-oxo-1-{[4-(2H-tetrazol-5-yl)phenyl]amino}propan-2-yl]cyclohexanecarboxamide hydrochloride], which IC50 (human factor XIa) is on record?
**A.** The IC50 was 14 nM.

**Q.** And the “aPTT (concentration of test substance which brings about a 1.5-fold extension of the aPTT)” value (human and animal plasma)?
**A.** Its value is 0.54 µmol/L.

**Q.** How did the IC50 (human factor XIa) turn out when Cc1ccc(S(=O)(=O)N2CCCC2)cc1-c1ccc(C[C@H](NC(=O)[C@H]2CC[C@H](CN)CC2)C(=O)Nc2ccc3[nH]c(=O)[nH]c3c2)cc1 [Example 7, trans-4-(Aminomethyl)-N-{(2S)-3-[2′-methyl-5′-(pyrrolidin-1-ylsulphonyl)biphenyl-4-yl]-1-oxo-1-[(2-oxo-2,3-dihydro-1H-benzimidazol-5-yl)amino]propan-2-yl}cyclohexanecarboxamide hydrochloride] was run?
**A.** The IC50 was 11 nM.

**Q.** And the “aPTT (concentration of test substance which brings about a 1.5-fold extension of the aPTT)” value (human and animal plasma)?
**A.** The value was 0.39 µmol/L.

**Q.** With CCOC(=O)c1cccc(-c2ccc(C[C@H](NC(=O)[C@H]3CC[C@H](CN)CC3)C(=O)Nc3ccc(-c4nn[nH]n4)cc3)cc2)c1F [Example 8, Ethyl 4′-[(2S)-2-({[trans-4-(aminomethyl)cyclohexyl]carbonyl}amino)-3-oxo-3-{[4-(2H-tetrazol-5-yl)phenyl]amino}propyl]-2-fluorobiphenyl-3-carboxylate hydrochloride] as the molecule, how does the IC50 (human factor XIa) read?
**A.** The IC50 was 6.9 nM.

**Q.** And the “aPTT (concentration of test substance which brings about a 1.5-fold extension of the aPTT)” value (human and animal plasma)?
**A.** Its value is 0.51 µmol/L.

**Q.** Which IC50 (human factor XIa) does the source give for Cc1ccc(C(=O)NC2CCNCC2)cc1-c1ccc(C[C@H](NC(=O)[C@H]2CC[C@H](CN)CC2)C(=O)Nc2ccc(-c3nn[nH]n3)cc2)cc1 [Example 9, hydrochloride] here?
**A.** The IC50 was 7.4 nM.

**Q.** And the “aPTT (concentration of test substance which brings about a 1.5-fold extension of the aPTT)” value (human and animal plasma)?
**A.** The value was 0.08 µmol/L.

**Q.** CCN(CC)CCNC(=O)c1ccc(C)c(-c2ccc(C[C@H](NC(=O)[C@H]3CC[C@H](CN)CC3)C(=O)Nc3ccc(-c4nn[nH]n4)cc3)cc2)c1 [Example 10, 4′-[(2S)-2-({[trans-4-(Aminomethyl)cyclohexyl]carbonyl}amino)-3-oxo-3-{[4-(2H-tetrazol-5-yl)phenyl]amino}propyl]-N-[2-(diethylamino)ethyl]-6-methylbiphenyl-3-carboxamide hydrochloride] was tested. Which IC50 (human factor XIa) did it give?
**A.** The IC50 was 8 nM.

**Q.** And the “aPTT (concentration of test substance which brings about a 1.5-fold extension of the aPTT)” value (human and animal plasma)?
**A.** Its value is 0.38 µmol/L.

**Q.** Which IC50 (human factor XIa) does the source give for Cc1ccc(C(=O)N[C@@H]2CCNC2)cc1-c1ccc(C[C@H](NC(=O)[C@H]2CC[C@H](CN)CC2)C(=O)Nc2ccc(-c3nn[nH]n3)cc2)cc1 [Example 11, 4′-[(2S)-2-({[trans-4-(Aminomethyl)cyclohexyl]carbonyl}amino)-3-oxo-3-{[4-(2H-tetrazol-5-yl)phenyl]amino}propyl]-6-methyl-N-[(3R)-pyrrolidin-3-yl]biphenyl-3-carboxamide hydrochloride] here?
**A.** The IC50 was 6.9 nM.

**Q.** What about the “aPTT (concentration of test substance which brings about a 1.5-fold extension of the aPTT)” value (human and animal plasma) of the same molecule?
**A.** The value was 0.26 µmol/L.

**Q.** How did the IC50 (human factor XIa) turn out when Cc1ccc(C(=O)N2CCNCC2)cc1-c1ccc(C[C@H](NC(=O)[C@H]2CC[C@H](CN)CC2)C(=O)Nc2ccc(-c3nn[nH]n3)cc2)cc1 [Example 12, trans-4-(Aminomethyl)-N-[(2S)-3-[2′-methyl-5′-(piperazin-1-ylcarbonyl)biphenyl-4-yl]-1-oxo-1-{[4-(2H-tetrazol-5-yl)phenyl]amino}propan-2-yl]cyclohexanecarboxamide hydrochloride] was run?
**A.** The IC50 was 8.1 nM.

**Q.** And the “aPTT (concentration of test substance which brings about a 1.5-fold extension of the aPTT)” value (human and animal plasma)?
**A.** The value was 0.49 µmol/L.

**Q.** Cc1cc(C)c(-c2ccc(C[C@H](NC(=O)[C@H]3CC[C@H](CN)CC3)C(=O)Nc3ccc(-c4nn[nH]n4)cc3)cc2)cc1C(=O)N(C)C [Example 39, 4′-[(2S)-2-({[trans-4-(Aminomethyl)cyclohexyl]carbonyl}amino)-3-oxo-3-{[4-(2H-tetrazol-5-yl)phenyl]amino}propyl]-N,N,4,6-tetramethylbiphenyl-3-carboxamide hydrochloride] was tested. Which IC50 (human factor XIa) did it give?
**A.** Its IC50 is 3.3 nM.

**Q.** Which IC50 (human factor XIa) does the source give for CNC(=O)c1ccc(C)c(-c2ccc(C[C@H](NC(=O)[C@H]3CC[C@H](CN)CC3)C(=O)Nc3ccc(-c4nnc(C(F)(F)C(F)(F)C(=O)O)[nH]4)cc3)cc2)c1 [Example 41, 3-{5-[4-({(2S)-2-({[trans-4-(Aminomethyl)cyclohexyl]carbonyl}amino)-3-[2′-methyl-5′-(methylcarbamoyl)biphenyl-4-yl]propanoyl}amino)phenyl]-4H-1,2,4-triazol-3-yl}-2,2,3,3-tetrafluoropropanoic acid hydrochloride] here?
**A.** The IC50 was 2.8 nM.
